Data: US20250073249A1, “STEROID COMPOUND, AND PREPARATION METHOD THEREFOR AND USE THEREOF” (SHANGHAI INSTITUTE OF MATERIA MEDICA, CHINESE ACADEMY OF …, priority 2022, published 2025)

Molecular target: T1, AR(W741L) (Homo sapiens, UniProt P10275, W742L)
T1 construct: expressed in transfected cells; host or cells: HEK293
T1 sequence (P10275 1-920 W742L): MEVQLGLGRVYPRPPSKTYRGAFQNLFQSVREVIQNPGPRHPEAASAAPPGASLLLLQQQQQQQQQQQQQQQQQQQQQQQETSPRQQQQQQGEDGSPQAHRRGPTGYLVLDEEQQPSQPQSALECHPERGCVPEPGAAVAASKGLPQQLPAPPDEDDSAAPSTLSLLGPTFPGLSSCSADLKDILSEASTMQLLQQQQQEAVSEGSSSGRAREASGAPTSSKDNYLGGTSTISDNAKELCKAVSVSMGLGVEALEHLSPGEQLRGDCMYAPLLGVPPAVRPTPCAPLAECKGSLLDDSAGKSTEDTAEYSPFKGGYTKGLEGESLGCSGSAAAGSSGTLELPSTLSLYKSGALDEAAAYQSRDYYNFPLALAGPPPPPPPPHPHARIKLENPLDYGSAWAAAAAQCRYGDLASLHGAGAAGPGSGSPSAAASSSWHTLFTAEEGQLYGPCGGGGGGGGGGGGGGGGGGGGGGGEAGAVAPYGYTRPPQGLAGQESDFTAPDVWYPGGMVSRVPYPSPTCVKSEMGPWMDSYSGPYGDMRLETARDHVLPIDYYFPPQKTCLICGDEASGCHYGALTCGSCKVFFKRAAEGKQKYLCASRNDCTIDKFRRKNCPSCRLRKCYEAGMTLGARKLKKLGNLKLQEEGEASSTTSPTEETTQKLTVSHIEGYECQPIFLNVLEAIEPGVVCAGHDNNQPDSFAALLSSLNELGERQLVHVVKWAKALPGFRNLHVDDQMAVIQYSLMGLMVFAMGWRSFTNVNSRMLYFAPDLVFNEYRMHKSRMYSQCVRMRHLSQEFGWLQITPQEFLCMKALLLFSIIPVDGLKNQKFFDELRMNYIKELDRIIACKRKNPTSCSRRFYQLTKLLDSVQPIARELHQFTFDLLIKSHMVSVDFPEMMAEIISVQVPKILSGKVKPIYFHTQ
Experiment: Mutant AR antagonistic activity test, W741L (reporter gene in HEK293 cells)
Type: cell-based
Settings: for IC50: HEK293 cells, DHT 10 nM, 24 hours, read-out: W741L IC50(nM) 1st gen AR antagonist resistant mutation
Method: HEK293 cells were cultured in DMEM supplemented with 10% FBS and 1% GlutaMax at 37° C. with 5% CO2. The day before transfection, the medium was changed to DMEM containing 10% charcoal-stripped FBS and 1% GlutaMax. […] The cell suspension was diluted with cell seeding solution, and the transfection reagent was added to achieve 500,000 cells/mL. Subsequently, 90 μL of cell suspension was seeded into each well of the assay plate. The next day, compounds were prepared: starting from 8 mM, 3-fold serial dilutions were performed in DMSO for a total of 8 points, then 500 nL was transferred to the compound plate using Echo. The compounds were then diluted with 40 μL of medium to 10× final concentration, and 10 μL was transferred to the cell plate and incubated at 37° C. for 30 minutes. Subsequently, 10 nL of DHT at a final concentration of 10 nM was transferred to each well of the assay plate using TECAN. After 24 hours of incubation, 100 μL of Steady-Glo was added to the assay plate and read on an Envision reader. Data were determined and analyzed using GraphPad Prism.

Row | Compound | IC50 [nM] | W741L antagonistic activity, fold improvement compared to enzalutamide (ratio to enzalutamide IC50) [fold]
1 | Cc1cn(C2=CCC3C4CC=C5C[C@@H](NC(=O)c6ccncc6)CC[C@]5(C)C4CC[C@]23C)cn1 (stereo partly drawn) [Compound 14, N-((3S,10R,13S)-10,13-dimethyl-17-(4-methyl-1H-imidazol-1-yl)-2,3,4,7,8,9,10,11,12,13,14,15-dodecahydro-1H-cyclopenta[a]phenanthren-3-yl)isonicotinamide] | 490 | 
2 | Cc1cn(C2=CCC3C4CC=C5C[C@@H](NC(=O)c6ccc(F)cc6)CC[C@]5(C)C4CC[C@]23C)cn1 (stereo partly drawn) [Compound 33, N-((3S,10R,13S)-17-(4-methyl-1H-imidazol-1-yl)-10,13-dimethyl-2,3,4,7,8,9,10,11,12,13,14,15-dodecahydro-1H-cyclopenta[a]phenanthren-3-yl)-4-fluorobenzamide] | 371 | 
3 | Cc1cn(C2=CCC3C4CC=C5C[C@@H](NC(=O)c6ccc(S(C)(=O)=O)cc6)CC[C@]5(C)C4CC[C@]23C)cn1 (stereo partly drawn) [Compound 35, N-((3S,10R,13S)-17-(4-methyl-1H-imidazol-1-yl)-10,13-dimethyl-2,3,4,7,8,9,10,11,12,13,14,15-dodecahydro-1H-cyclopenta[a]phenanthren-3-yl)-4-(methylsulfonyl)benzamide] | 259 | 4.0
4 | Cc1cn(C2=CCC3C4CC=C5C[C@@H](NC(=O)c6ccc(F)cc6F)CC[C@]5(C)C4CC[C@]23C)cn1 (stereo partly drawn) [Compound 37, N-((3S,10R,13S)-17-(4-methyl-1H-imidazol-1-yl)-10,13-dimethyl-2,3,4,7,8,9,10,11,12,13,14,15-dodecahydro-1H-cyclopenta[a]phenanthren-3-yl)-2,4-difluorobenzamide] | 413 | 
